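Assay format: 96-well plates, 48-hour exposure. Abbreviation: GI50, concentration required for 50% inhibition of growth.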 The source made the active and inactive calls. Rule as the data show it: active = GI50 up to about 1.1 µM and inactive = higher.
Experiments:
Experiment in all cases: NCI tumour cell line growth inhibition, 48 h
ACHN = system: ACHN
COLO 205 = system: COLO 205
IGROV-1 = system: IGROV-1
HOP-92 = system: HOP-92
SNB-19 = system: SNB-19
HT-29 = system: HT-29
DLD-1 = system: DLD-1
UO-31 = system: UO-31
RPMI-8226 = system: RPMI-8226
SF-539 = system: SF-539
OVCAR-3 = system: OVCAR-3
HOP-18 = system: HOP-18
HCT-116 = system: HCT-116
M19-MEL = system: M19-MEL
SK-MEL-28 = system: SK-MEL-28
UACC-62 = system: UACC-62
DMS-273 = system: DMS-273
A498 = system: A498
LOX IMVI = system: LOX IMVI
EKVX = system: EKVX
XF498 = system: XF498
KM12 = system: KM12
NCI-H23 = system: NCI-H23
OVCAR-8 = system: OVCAR-8
HCT-15 = system: HCT-15
KM-20L2 = system: KM-20L2
SK-OV-3 = system: SK-OV-3
K562 = system: K562
SR = system: SR
SF-295 = system: SF-295
SK-MEL-2 = system: SK-MEL-2
DMS-114 = system: DMS-114
NCI-H522 = system: NCI-H522
MOLT-4 = system: MOLT-4
Malme-3M = system: Malme-3M
SN12C = system: SN12C
RXF 393 = system: RXF 393
U-251 = system: U-251
HCC 2998 = system: HCC 2998
A549 = system: A549
UACC-257 = system: UACC-257
HOP-62 = system: HOP-62
786-0 = system: 786-0
NCI-H460 = system: NCI-H460
SNB-75 = system: SNB-75
SNB-78 = system: SNB-78
LXFL 529 = system: LXFL 529
M14 = system: M14
TK-10 = system: TK-10
CCRF-CEM = system: CCRF-CEM
SF-268 = system: SF-268
SW-620 = system: SW-620
HL-60 = system: HL-60
NCI-H226 = system: NCI-H226
OVCAR-5 = system: OVCAR-5
OVCAR-4 = system: OVCAR-4
SK-MEL-5 = system: SK-MEL-5
CAKI-1 = system: CAKI-1

Structure (SMILES): CC1(C)CC(=O)C2=C(C1)S/C(=C1/SC3=C(S1)C(=O)CC(C)(C)C3)S2
- GI50 (ACHN): > 251 µM (inactive)
- GI50 (COLO 205): > 251 µM (inactive)
- GI50 (IGROV-1): > 251 µM (inactive)
- GI50 (HOP-92): > 251 µM (inactive)
- GI50 (SNB-19): > 251 µM (inactive)
- GI50 (HT-29): > 251 µM (inactive)
- GI50 (DLD-1): > 251 µM (inactive)
- GI50 (UO-31): > 251 µM (inactive)
- GI50 (RPMI-8226): > 251 µM (inactive)
- GI50 (SF-539): > 251 µM (inactive)
- GI50 (OVCAR-3): > 251 µM (inactive)
- GI50 (HOP-18): > 251 µM (inactive)
- GI50 (HCT-116): > 251 µM (inactive)
- GI50 (M19-MEL): > 251 µM (inactive)
- GI50 (SK-MEL-28): > 251 µM (inactive)
- GI50 (UACC-62): > 251 µM (inactive)
- GI50 (DMS-273): > 251 µM (inactive)
- GI50 (A498): > 251 µM (inactive)
- GI50 (LOX IMVI): > 251 µM (inactive)
- GI50 (EKVX): > 251 µM (inactive)
- GI50 (XF498): > 251 µM (inactive)
- GI50 (KM12): > 251 µM (inactive)
- GI50 (NCI-H23): > 251 µM (inactive)
- GI50 (OVCAR-8): > 251 µM (inactive)
- GI50 (HCT-15): > 251 µM
- GI50 (KM-20L2): > 251 µM (inactive)
- GI50 (SK-OV-3): > 251 µM (inactive)
- GI50 (K562): > 251 µM (inactive)
- GI50 (SR): > 251 µM (inactive)
- GI50 (SF-295): > 251 µM (inactive)
- GI50 (SK-MEL-2): > 251 µM (inactive)
- GI50 (DMS-114): > 251 µM (inactive)
- GI50 (NCI-H522): > 251 µM (inactive)
- GI50 (MOLT-4): > 251 µM (inactive)
- GI50 (Malme-3M): > 251 µM (inactive)
- GI50 (SN12C): > 251 µM (inactive)
- GI50 (RXF 393): > 251 µM (inactive)
- GI50 (U-251): > 251 µM (inactive)
- GI50 (HCC 2998): > 251 µM (inactive)
- GI50 (A549): > 251 µM (inactive)
- GI50 (UACC-257): > 251 µM (inactive)
- GI50 (HOP-62): > 251 µM (inactive)
- GI50 (786-0): > 251 µM (inactive)
- GI50 (NCI-H460): > 251 µM (inactive)
- GI50 (SNB-75): > 251 µM (inactive)
- GI50 (SNB-78): > 251 µM (inactive)
- GI50 (LXFL 529): > 251 µM (inactive)
- GI50 (M14): > 251 µM (inactive)
- GI50 (TK-10): > 251 µM (inactive)
- GI50 (CCRF-CEM): > 251 µM (inactive)
- GI50 (SF-268): > 251 µM (inactive)
- GI50 (SW-620): > 251 µM (inactive)
- GI50 (HL-60): > 251 µM (inactive)

Structure (SMILES): C=C1C(=O)OC2/C=C(/C)C3CC(O)C(C)(CC(OC(=O)/C(C)=C/C)C12)O3 (stereo not given)
- GI50 (ACHN): 2.49 µM (inactive)
- GI50 (COLO 205): 1.52 µM (inactive)
- GI50 (IGROV-1): 5.26 µM (inactive)
- GI50 (HOP-92): 2.98 µM (inactive)
- GI50 (SNB-19): 1.97 µM (inactive)
- GI50 (HT-29): 3.76 µM (inactive)
- GI50 (DLD-1): 1.54 µM (inactive)
- GI50 (UO-31): 5.86 µM (inactive)
- GI50 (RPMI-8226): 1.83 µM (inactive)
- GI50 (SF-539): 2.14 µM (inactive)
- GI50 (OVCAR-3): 3.78 µM (inactive)
- GI50 (HOP-18): 17.4 µM (inactive)
- GI50 (HCT-116): 1.53 µM (inactive)
- GI50 (M19-MEL): 2.96 µM (inactive)
- GI50 (SK-MEL-28): 2.52 µM (inactive)
- GI50 (UACC-62): 2.03 µM (inactive)
- GI50 (DMS-273): 2.54 µM (inactive)
- GI50 (NCI-H226): 14.7 µM (inactive)
- GI50 (A498): 10.4 µM (inactive)
- GI50 (OVCAR-5): 8.61 µM (inactive)
- GI50 (LOX IMVI): 1.76 µM (inactive)
- GI50 (EKVX): 3.86 µM (inactive)
- GI50 (XF498): 3.56 µM (inactive)
- GI50 (KM12): 3.33 µM (inactive)
- GI50 (NCI-H23): 4.49 µM (inactive)
- GI50 (OVCAR-8): 1.83 µM (inactive)
- GI50 (HCT-15): 1.76 µM
- GI50 (KM-20L2): 2.32 µM (inactive)
- GI50 (SK-OV-3): 36.1 µM (inactive)
- GI50 (K562): 1.69 µM (inactive)
- GI50 (SF-295): > 39.4 µM (inactive)
- GI50 (SK-MEL-2): 2.49 µM (inactive)
- GI50 (DMS-114): 7.01 µM (inactive)
- GI50 (NCI-H522): 1.6 µM (inactive)
- GI50 (MOLT-4): 1.91 µM (inactive)
- GI50 (Malme-3M): 2.28 µM (inactive)
- GI50 (SN12C): 3.27 µM (inactive)
- GI50 (RXF 393): 1.52 µM (inactive)
- GI50 (U-251): 9.04 µM (inactive)
- GI50 (OVCAR-4): 7.55 µM (inactive)
- GI50 (HCC 2998): 13.2 µM (inactive)
- GI50 (A549): 6.61 µM (inactive)
- GI50 (SK-MEL-5): 4.68 µM (inactive)
- GI50 (UACC-257): 4.25 µM (inactive)
- GI50 (HOP-62): 25.1 µM (inactive)
- GI50 (786-0): 3.29 µM (inactive)
- GI50 (NCI-H460): 6.18 µM (inactive)
- GI50 (SNB-75): 9.04 µM (inactive)
- GI50 (CAKI-1): 1.97 µM (inactive)
- GI50 (SNB-78): 2.61 µM (inactive)
- GI50 (LXFL 529): 2.08 µM (inactive)
- GI50 (M14): 2.91 µM (inactive)
- GI50 (TK-10): 8.24 µM (inactive)
- GI50 (CCRF-CEM): 0.508 µM (active)
- GI50 (SF-268): 4.2 µM (inactive)
- GI50 (SW-620): 1.65 µM (inactive)
- GI50 (HL-60): 0.759 µM (active)

Reference: ChEMBL document CHEMBL1201862, “PubChem BioAssay data set” (2004)
